Laboratory results from ChEMBL document CHEMBL2057175, “New structure-activity relationships of A- and D-ring modified steroidal aromatase inhibitors: design, synthesis, and biochemical evaluation” (J Med Chem, 2012).

What was measured:
Aromatase [1] = target: T1, Aromatase (Homo sapiens, UniProt P11511); experiment: Competitive inhibition of aromatase in human microsomes using [1beta-3H]androstenedione as substrate after 5 mins by Lineweaver-Burk plot analysis; parameters: species or system Microsome
T1 sequence (P11511 whole entry): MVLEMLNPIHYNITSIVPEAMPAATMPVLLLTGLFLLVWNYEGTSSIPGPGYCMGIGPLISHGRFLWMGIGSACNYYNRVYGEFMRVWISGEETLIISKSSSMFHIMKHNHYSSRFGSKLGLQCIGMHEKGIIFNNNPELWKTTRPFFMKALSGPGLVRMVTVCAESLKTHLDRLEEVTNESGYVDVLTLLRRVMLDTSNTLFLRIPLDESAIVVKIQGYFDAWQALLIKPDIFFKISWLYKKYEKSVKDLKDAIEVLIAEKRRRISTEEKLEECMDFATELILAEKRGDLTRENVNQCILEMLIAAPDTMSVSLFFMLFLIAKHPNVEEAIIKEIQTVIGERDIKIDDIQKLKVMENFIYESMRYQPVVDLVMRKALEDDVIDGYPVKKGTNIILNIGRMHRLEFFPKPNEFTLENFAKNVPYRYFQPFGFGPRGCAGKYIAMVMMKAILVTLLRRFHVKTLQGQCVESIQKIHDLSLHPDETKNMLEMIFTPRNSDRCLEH

Aromatase [2] = target: T1, Aromatase; conditions: 0.25 h, read-out: INH
Description: Inhibition of aromatase in human placental microsomes using [1beta-3H]androstenedione as substrate at 2 uM after 15 mins by liquid scintillation counting

Aromatase [3] = target: T1, Aromatase; experiment: Inhibition of aromatase in human microsomes using [1beta-3H]androstenedione as substrate after 5 mins by Dixon plot analysis; parameters: species or system Microsome; conditions: read-out: Ki(app)
Aromatase [4] = target: T1, Aromatase; experiment: Inhibition of aromatase in human placental microsomes using [1beta-3H]androstenedione as substrate after 15 mins by liquid scintillation counting; parameters: species or system Placenta

`C[C@]12CC[C@H](O)C=C1CC[C@@H]1[C@@H]2CC[C@]2(C)C(=O)CC[C@@H]12` was tested, and the “inhibition (INH)” value (Aromatase [1]) was “Active” and the inhibition at 2 µM (Aromatase [2]) was 93.1%.

With `C[C@]12CCC=C[C@@H]1CC[C@@H]1[C@@H]2CC[C@]2(C)C(=O)CC[C@@H]12` the Ki (Aromatase [3]) was 50 nM and the “inhibition (INH)” value (Aromatase [1]) was “Active”.

With `C[C@]12CC[C@H]3O[C@H]3[C@@H]1CC[C@@H]1[C@@H]2CC[C@]2(C)C(=O)CC[C@@H]12` the “inhibition (INH)” value (Aromatase [1]) was “Active”.

`C[C@]12CCCC=C1CC[C@@H]1[C@@H]2CC[C@]2(C)C(=O)CC[C@@H]12` gave an inhibition at 2 µM (Aromatase [2]) of 97.8%.

`C[C@]12CC[C@@H](O)C=C1CC[C@@H]1[C@@H]2CC[C@]2(C)C(=O)CC[C@@H]12` showed an inhibition at 2 µM (Aromatase [2]) of 60.8%.

Work on `CC(=O)O[C@H]1CC[C@H]2[C@@H]3CCC4=C[C@@H](O)CC[C@]4(C)[C@H]3CC[C@]12C` yielded an inhibition at 2 µM (Aromatase [2]) of 4.6%.

`C[C@]12CC[C@H]3[C@@H](CC[C@@]45O[C@@H]4CCC[C@]35C)[C@@H]1CCC2=O` was tested, and the IC50 (Aromatase [4]) was 970 nM, the Ki (Aromatase [3]) was 86 nM and the “inhibition (INH)” value (Aromatase [1]) was “Active”. For the same compound, the inhibition at 2 µM (Aromatase [2]) was 84.6%.

`C[C@]12CC=CC[C@@H]1CC[C@@H]1[C@@H]2CC[C@]2(C)C(=O)CC[C@@H]12` was tested, and the IC50 (Aromatase [4]) was 1730 nM, the Ki (Aromatase [3]) was 9500 nM and the “inhibition (INH)” value (Aromatase [1]) was “Active”. It also gave an inhibition at 2 µM (Aromatase [2]) of 72%.

Compound `C[C@]12C[C@H]3O[C@H]3C[C@@H]1CC[C@@H]1[C@@H]2CC[C@]2(C)C(=O)CC[C@@H]12` has an IC50 (Aromatase [4]) of 1150 nM and an inhibition at 2 µM (Aromatase [2]) of 70.7%.

With `C[C@]12C=CCC[C@@H]1CC[C@@H]1[C@@H]2CC[C@]2(C)C(=O)CC[C@@H]12` the inhibition at 2 µM (Aromatase [2]) was 56%.

Work on `C[C@]12[C@@H](CC[C@@H]3[C@@H]1CC[C@]1(C)C(=O)CC[C@@H]31)CC[C@@H]1O[C@@H]12` yielded an inhibition at 2 µM (Aromatase [2]) of 40%.

In the case of `CC(=O)OC1=CCC[C@@]2(C)[C@H]1CC[C@@H]1[C@@H]2CC[C@]2(C)C(=O)CC[C@@H]12`, the inhibition at 2 µM (Aromatase [2]) is reported as 33.9%.

In the case of `CC(=O)Oc1ccccc1C(=O)OC1=C2CC[C@@H]3[C@H](CC[C@]4(C)C(=O)CC[C@@H]34)[C@@]2(C)CCC1=O`, the inhibition at 2 µM (Aromatase [2]) is reported as 68.7%.

Compound `C[C@]12CCC=C[C@@H]1CC[C@@H]1[C@@H]2CC[C@]2(C)C(=S)CC[C@@H]12` has an inhibition at 2 µM (Aromatase [2]) of 41.5%.
